Data published in ChEMBL document CHEMBL1201862, “PubChem BioAssay data set” (2004).
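Results reflect a 48-hour exposure of cells in 96-well plates to compound at five concentrations. GI50 = concentration required for 50% inhibition of growth.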 Active and inactive are the calls of the source. Rule as the data show it: active = GI50 up to about 1.1 µM and inactive = higher.

Experiments:
Assay in all cases: inhibition of tumour cell growth, NCI panel, 48 h
[1] = system: 786-0
[2] = system: CAKI-1
[3] = system: COLO 205
[4] = system: HCC 2998
[5] = system: HCT-116
[6] = system: HOP-62
[7] = system: NCI-H522
[8] = system: RPMI-8226
[9] = system: SK-MEL-28
[10] = system: SNB-19
[11] = system: SNB-75
[12] = system: SW-620
[13] = system: UACC-62
[14] = system: HT-29
[15] = system: OVCAR-3
[16] = system: SR

Measured: GI50

COC(=O)C(CC(=O)Nc1ccc(C)cc1)C(=O)C(=O)Nc1c(C(C)C)cccc1C(C)C (stereo not given)
inactive: [1] > 100 µM | [2] > 100 µM | [3] > 100 µM | [4] > 100 µM | [5] > 100 µM | [6] > 100 µM | [7] > 100 µM | [8] > 100 µM | [9] > 100 µM | [10] > 100 µM | [11] 97.7 µM | [12] > 100 µM | [13] 55.2 µM

CN1CCn2c(Br)ccc2C1=O
inactive: [1] > 100 µM | [2] > 100 µM | [3] > 100 µM | [4] > 100 µM | [5] > 100 µM | [6] > 100 µM | [14] > 100 µM | [7] > 100 µM | [15] > 100 µM | [8] > 100 µM | [9] > 100 µM | [10] > 100 µM | [16] > 100 µM | [12] > 100 µM | [13] > 100 µM

COC1C2C=CC(C2)[C@H]1[N+](=O)[O-] (stereo not given in full)
inactive: [1] > 100 µM | [2] > 100 µM | [3] > 100 µM | [4] > 100 µM | [5] > 100 µM | [6] > 100 µM | [14] > 100 µM | [7] > 100 µM | [15] > 100 µM | [10] > 100 µM | [11] > 100 µM | [16] > 100 µM | [12] 95.7 µM | [13] > 100 µM

NC(=S)N/N=C1\C(=O)N(c2cccc([N+](=O)[O-])c2)C(=O)C1C(=O)Nc1cccc([N+](=O)[O-])c1 (stereo not given)
inactive: [1] > 100 µM | [2] > 100 µM | [3] > 100 µM | [4] > 100 µM | [5] > 100 µM | [6] > 100 µM | [14] > 100 µM | [7] > 100 µM | [15] > 100 µM | [8] > 100 µM | [9] > 100 µM | [10] > 100 µM | [11] > 100 µM | [12] > 100 µM | [13] > 100 µM

CCOC(=O)C(=O)Nc1c(C(C)C)cccc1C(C)C
inactive: [1] > 100 µM | [2] > 100 µM | [3] > 100 µM | [4] > 100 µM | [5] > 100 µM | [6] > 100 µM | [14] > 100 µM | [7] > 100 µM | [15] > 100 µM | [9] > 100 µM | [10] > 100 µM | [11] > 100 µM | [16] > 100 µM | [12] > 100 µM | [13] > 100 µM

CC1=N/C(=C\c2cccc([N+](=O)[O-])c2)C(=O)O1
inactive: [1] > 100 µM | [3] > 100 µM | [4] > 100 µM | [5] > 100 µM | [6] > 100 µM | [14] > 100 µM | [7] > 100 µM | [8] > 100 µM | [9] > 100 µM | [10] > 100 µM | [11] 15.1 µM | [12] > 100 µM | [13] > 100 µM

COc1cc(C(N)=O)c(OC)c(OC)c1OC
inactive: [1] > 100 µM | [3] > 100 µM | [4] > 100 µM | [5] > 100 µM | [6] > 100 µM | [14] > 100 µM | [7] > 100 µM | [15] > 100 µM | [8] > 100 µM | [9] > 100 µM | [10] > 100 µM | [11] 69.8 µM | [12] > 100 µM | [13] > 100 µM

O=C(O)c1c[nH]c2c(ccc3ncccc32)c1=O
inactive: [1] > 100 µM | [3] > 100 µM | [4] > 100 µM | [5] > 100 µM | [6] > 100 µM | [14] > 100 µM | [7] > 100 µM | [15] > 100 µM | [9] > 100 µM | [10] > 100 µM | [11] > 100 µM | [16] > 100 µM | [12] > 100 µM | [13] > 100 µM

CN(C)CC1CCCC/C1=N/O (stereo not given)
inactive: [1] > 100 µM | [2] > 100 µM | [3] > 100 µM | [4] > 100 µM | [5] > 100 µM | [6] > 100 µM | [14] > 100 µM | [7] > 100 µM | [15] > 100 µM | [8] > 100 µM | [9] > 100 µM | [11] > 100 µM | [12] > 100 µM | [13] > 100 µM

Nc1c(S(=O)(=O)c2ccc(Cl)cc2)c2nc3ccccc3nc2n2ccnc12
inactive: [1] 36.2 µM | [3] > 100 µM | [4] > 100 µM | [5] 44.3 µM | [14] > 100 µM | [7] 53.7 µM | [15] > 100 µM | [8] > 100 µM | [9] > 100 µM | [10] 48.5 µM | [11] 31.6 µM

CC(=O)/C(=C\C1=CCCO1)C(=O)Nc1ccccc1C
inactive: [1] > 100 µM | [2] > 100 µM | [4] > 100 µM | [5] > 100 µM | [6] > 100 µM | [14] > 100 µM | [7] > 100 µM | [15] > 100 µM | [8] > 100 µM | [9] > 10 µM | [10] > 100 µM | [16] > 100 µM | [12] > 100 µM | [13] > 100 µM

[O-][S+]1c2ccccc2N=C(c2ccc3ccccc3c2)CC1c1ccccc1F (stereo not given)
inactive: [1] > 100 µM | [2] > 100 µM | [3] > 100 µM | [4] > 100 µM | [6] > 100 µM | [14] > 100 µM | [7] 72.3 µM | [15] > 100 µM | [8] 58.6 µM | [9] > 100 µM | [10] > 100 µM | [11] 20.5 µM | [12] > 100 µM | [13] > 100 µM

CC(=O)CCn1ncc(Cl)c(Cl)c1=O
inactive: [1] 20.5 µM | [2] 1.91 µM | [4] 9.51 µM | [5] 14.5 µM | [6] 19.7 µM | [14] 14.1 µM | [15] 13.7 µM | [8] 14.2 µM | [9] 13.8 µM | [10] 18 µM | [11] 34.4 µM | [16] 9.59 µM | [12] 19 µM | [13] 17.2 µM

O=S1(=O)CSc2ccc3ccccc3c2-c2c1ccc1ccccc21
inactive: [1] > 100 µM | [2] > 100 µM | [3] > 100 µM | [4] > 100 µM | [5] > 100 µM | [6] > 100 µM | [14] > 100 µM | [7] > 100 µM | [15] > 100 µM | [9] > 100 µM | [10] > 100 µM | [11] > 100 µM | [16] > 100 µM | [12] > 100 µM | [13] > 100 µM
